Results published in PubChem BioAssay AID1963985 (Molecular Pharmacology Branch, DTP, NCI, 2024).
Each block holds one molecule with its values, some of them ahead of it.

System: 252836-082-R-J2-PDC tumor spheroids, viability
Test: Anticancer human tumor 252836-082-R-J2-PDC patient-derived head and neck squamous cell carcinoma cell line growth inhibition [PI3K]
Settings: spheroids with HUVEC and MSC; for IC50: curve of first compound; for viability, T/C: stronger effect = lower value
Description: Combinatorial screen of targeted agents with the PI3K inhibitors inavolisib, alpelisib, duvelisib, and copanlisib in multi-cell type tumor spheroids
A high-throughput screen of multi-cell type tumor spheroids was designed to identify active combinations of targeted small molecules and PI3K pathway inhibitors. Complex spheroids include a stromal component modeled by human endothelial cells (HUVEC) and fibroblasts modeled by human mesenchymal stem cells (MSCs). The concentration ranges selected for each drug and investigational agent were based upon clinically achievable concentrations if the clinical Cmax of the agent was known.
Compounds. The drugs and investigational agents: inavolisib (NSC800729), alpelisib (NSC765974), duvelisib (NSC772469), copanlisib (NSC816437), ipatasertib (NSC767898), afuresertib (NSC778305), talazoparib (NSC767125), sapanisertib (NSC764658), selumetinib (NSC741078), tovorafenib (DAY101, NSC766906), vemurafenib (NSC761431), ravoxertinib (NSC781343), sotorasib (NSC818433), MRTX1133 (NSC 836407), abemaciclib (NSC 768073), palbociclib (NSC758247), venetoclax (NSC 766270), SY5609 (NSC837396), enzalutamide (NSC755605), and darolutamide (NSC825331), were obtained from the National Cancer Institute (NCI) Developmental Therapeutics Program Chemical Repository. The FDA-approved anticancer drug set is available from the NCI Developmental Therapeutics Program. […] The stock solutions were prepared in dimethyl sulfoxide (DMSO, Sigma-Aldrich, St. Louis, MO, cat. D2650) at 800-fold the tested concentration and stored at -70 degrees C prior to their use. All drugs and investigational agents were tested over a range starting from a high concentration at or near the clinical Cmax and decreasing in half-log increments. If the clinical Cmax for an agent had not been determined, the highest concentration tested was 10 microM.
Cell Culture. All cells were maintained in an incubator at 37 degrees C and 5% CO2 with 95% humidity. The PDC lines were cultured according to standard operating procedures established by the NCI PDMR (https://pdmr.cancer.gov/sops/default.htm). All PDCs were thawed and cultured in Matrigel-coated flasks prepared with a working solution of 1X Ham's F-12 nutrient mix, without supplementation (Invitrogen, Waltham, MA, cat. 11765054), 100 U/mL penicillin-streptomycin (Invitrogen, cat. 15140122), and 2.5% Matrigel (Corning Inc., Corning, NY, cat. 354248) for the first three passages. The 354836-022-R-J1-PDC, 475296-252-R-J1-PDC, and 997726-040-R-J2-PDC lines were cultured in 6A media, which includes advanced DMEM/F-12 (Thermo Fisher Scientific, cat. 12634028), 10 mM HEPES (Thermo Fisher Scientific, cat. 15630080), 1X GlutaMAX supplement (Thermo Fisher Scientific, cat. 35050061), 0.1 mg/mL primocin (InvivoGen, San Diego, CA, cat. ant-pm-2), 10% defined fetal bovine serum, heat inactivated (HyClone Laboratories Inc., Logan, UT, cat. SH30070.03HI), 50% L-WRN conditioned media (ATCC, cat. CRL-3276), 1.25 mM N-Acetyl-L-cysteine (Sigma-Aldrich, cat. A9165), 10 mM nicotinamide (Sigma-Aldrich, cat. N0636), 1X B-27 supplement (Thermo Fisher Scientific, cat. 17504044), 1X N-2 supplement (Thermo Fisher Scientific, cat. 17502048), and 10 microM Y-27632 dihydrochloride (Tocris Bioscience, Bristol, United Kingdom, cat. 1254). The 624824-186-R-J2-PDC line was cultured in 6C/Colon 1B media, which includes all 6A media components plus 50 ng/mL human EGF recombinant protein (Thermo Fisher Scientific, cat. PHG0311). […]

[1] = second compound 0.00316 µM, first compound 0.0316 µM
[2] = second compound 0.00316 µM, first compound 0.1 µM
[3] = second compound 0.01 µM, first compound 0.0316 µM
[4] = second compound 0.01 µM, first compound 0.1 µM
[5] = second compound 0.0316 µM, first compound 0.0316 µM
[6] = second compound 0.0316 µM, first compound 0.1 µM
[7] = second compound 0.1 µM, first compound 0.0316 µM
[8] = second compound 0.1 µM, first compound 0.1 µM
[9] = second compound 0.316 µM, first compound 0.0316 µM
[10] = second compound 0.316 µM, first compound 0.1 µM
[11] = second compound 1 µM, first compound 0.0316 µM
[12] = second compound 1 µM, first compound 0.1 µM
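Further: spheroids exposed to agents for seven days before readout.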
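Wherever viability, T/C is given: percent of vehicle DMSO control viability so 100% = untreated growth.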

- IC50 (second compound 0.00316 µM): 36.9 nM
- IC50 (second compound 0.01 µM): 26.9 nM
- IC50 (second compound 0.0316 µM): 22.4 nM
- IC50 (second compound 0.1 µM): 9.42 nM
- IC50 (second compound 0.316 µM): 4.07 nM
- IC50 (second compound 1 µM): < 0.316 nM
Compound: CC(C)n1nc(-c2ccc3oc(N)nc3c2)c2c(N)ncnc21 + CC(Nc1ccc2c(c1)OCCn1cc(N3C(=O)OCC3C(F)F)nc1-2)C(N)=O
- viability, T/C (second compound 0.00316 µM, first compound 0.000316 µM): 108%
- viability, T/C (second compound 0.00316 µM, first compound 0.001 µM): 81.8%
- viability, T/C (second compound 0.00316 µM, first compound 0.00316 µM): 79%
- viability, T/C (second compound 0.00316 µM, first compound 0.01 µM): 86%
- viability, T/C [1]: 51.1%
- viability, T/C [2]: 21.9%
- viability, T/C (second compound 0.01 µM, first compound 0.000316 µM): 94%
- viability, T/C (second compound 0.01 µM, first compound 0.001 µM): 81.1%
- viability, T/C (second compound 0.01 µM, first compound 0.00316 µM): 73.6%
- viability, T/C (second compound 0.01 µM, first compound 0.01 µM): 69.4%
- viability, T/C [3]: 47.7%
- viability, T/C [4]: 21.3%
- viability, T/C (second compound 0.0316 µM, first compound 0.000316 µM): 86.2%
- viability, T/C (second compound 0.0316 µM, first compound 0.001 µM): 77.4%
- viability, T/C (second compound 0.0316 µM, first compound 0.00316 µM): 80.7%
- viability, T/C (second compound 0.0316 µM, first compound 0.01 µM): 61.7%
- viability, T/C [5]: 44.8%
- viability, T/C [6]: 19.4%
- viability, T/C (second compound 0.1 µM, first compound 0.000316 µM): 78.2%
- viability, T/C (second compound 0.1 µM, first compound 0.001 µM): 65.1%
- viability, T/C (second compound 0.1 µM, first compound 0.00316 µM): 59.5%
- viability, T/C (second compound 0.1 µM, first compound 0.01 µM): 52.5%
- viability, T/C [7]: 35.2%
- viability, T/C [8]: 15.9%
- viability, T/C (second compound 0.316 µM, first compound 0.000316 µM): 55.1%
- viability, T/C (second compound 0.316 µM, first compound 0.001 µM): 52.3%
- viability, T/C (second compound 0.316 µM, first compound 0.00316 µM): 56.6%
- viability, T/C (second compound 0.316 µM, first compound 0.01 µM): 40%
- viability, T/C [9]: 28.9%
- viability, T/C [10]: 16.6%
- viability, T/C (second compound 1 µM, first compound 0.000316 µM): 46.4%
- viability, T/C (second compound 1 µM, first compound 0.001 µM): 52.5%
- viability, T/C (second compound 1 µM, first compound 0.00316 µM): 42.4%
- viability, T/C (second compound 1 µM, first compound 0.01 µM): 37.8%
- viability, T/C [11]: 26.6%
- viability, T/C [12]: 11.9%

- IC50 (second compound 0.00316 µM): 5210 nM
- IC50 (second compound 0.01 µM): 5490 nM
- IC50 (second compound 0.0316 µM): 4300 nM
- IC50 (second compound 0.1 µM): 3430 nM
- IC50 (second compound 0.316 µM): 3840 nM
- IC50 (second compound 1 µM): < 31.6 nM
Compound: CCCS(=O)(=O)Nc1ccc(F)c(C(=O)c2c[nH]c3ncc(-c4ccc(Cl)cc4)cc23)c1F + CC(Nc1ccc2c(c1)OCCn1cc(N3C(=O)OCC3C(F)F)nc1-2)C(N)=O
- viability, T/C [1]: 98%
- viability, T/C [2]: 90.1%
- viability, T/C (second compound 0.00316 µM, first compound 0.316 µM): 102%
- viability, T/C (second compound 0.00316 µM, first compound 1 µM): 103%
- viability, T/C (second compound 0.00316 µM, first compound 3.16 µM): 84.1%
- viability, T/C (second compound 0.00316 µM, first compound 10 µM): 5.37%
- viability, T/C [3]: 80.5%
- viability, T/C [4]: 88.5%
- viability, T/C (second compound 0.01 µM, first compound 0.316 µM): 97.6%
- viability, T/C (second compound 0.01 µM, first compound 1 µM): 100%
- viability, T/C (second compound 0.01 µM, first compound 3.16 µM): 92.3%
- viability, T/C (second compound 0.01 µM, first compound 10 µM): 4.83%
- viability, T/C [5]: 76.3%
- viability, T/C [6]: 90%
- viability, T/C (second compound 0.0316 µM, first compound 0.316 µM): 87%
- viability, T/C (second compound 0.0316 µM, first compound 1 µM): 91.2%
- viability, T/C (second compound 0.0316 µM, first compound 3.16 µM): 66.9%
- viability, T/C (second compound 0.0316 µM, first compound 10 µM): 3.26%
- viability, T/C [7]: 71.9%
- viability, T/C [8]: 77.4%
- viability, T/C (second compound 0.1 µM, first compound 0.316 µM): 69.1%
- viability, T/C (second compound 0.1 µM, first compound 1 µM): 66.4%
- viability, T/C (second compound 0.1 µM, first compound 3.16 µM): 54.5%
- viability, T/C (second compound 0.1 µM, first compound 10 µM): 4.8%
- viability, T/C [9]: 64.4%
- viability, T/C [10]: 67.4%
- viability, T/C (second compound 0.316 µM, first compound 0.316 µM): 65.8%
- viability, T/C (second compound 0.316 µM, first compound 1 µM): 48.9%
- viability, T/C (second compound 0.316 µM, first compound 3.16 µM): 59.7%
- viability, T/C (second compound 0.316 µM, first compound 10 µM): 4.86%
- viability, T/C [11]: 49.1%
- viability, T/C [12]: 48.2%
- viability, T/C (second compound 1 µM, first compound 0.316 µM): 46%
- viability, T/C (second compound 1 µM, first compound 1 µM): 46.2%
- viability, T/C (second compound 1 µM, first compound 3.16 µM): 41.3%
- viability, T/C (second compound 1 µM, first compound 10 µM): 5.27%
